This note sets out measurements from ChEMBL document CHEMBL5291721, “A preclinical secondary pharmacology resource illuminates target-adverse drug reaction associations of marketed drugs” (Nat Commun, 2023).

In test [1] the target is Histamine H3 receptor (Homo sapiens, UniProt Q9Y5N1).
The target of test [2] is T1, Thromboxane A2 receptor (Homo sapiens, UniProt P21731).
T1 sequence (P21731 whole entry): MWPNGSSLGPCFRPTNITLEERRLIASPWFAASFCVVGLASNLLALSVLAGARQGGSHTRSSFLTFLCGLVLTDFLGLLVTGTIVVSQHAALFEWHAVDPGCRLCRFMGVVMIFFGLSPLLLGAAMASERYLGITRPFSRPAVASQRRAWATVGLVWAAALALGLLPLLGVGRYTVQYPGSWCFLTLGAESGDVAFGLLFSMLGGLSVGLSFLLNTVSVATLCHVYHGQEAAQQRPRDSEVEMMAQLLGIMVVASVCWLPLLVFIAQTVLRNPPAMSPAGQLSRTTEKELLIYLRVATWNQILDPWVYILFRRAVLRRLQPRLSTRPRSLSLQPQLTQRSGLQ

In test [3] the target is Prostaglandin G/H synthase 1 (Homo sapiens, UniProt P23219). The test is classed as functional.
Prostaglandin G/H synthase 1, sequence (P23219 whole entry): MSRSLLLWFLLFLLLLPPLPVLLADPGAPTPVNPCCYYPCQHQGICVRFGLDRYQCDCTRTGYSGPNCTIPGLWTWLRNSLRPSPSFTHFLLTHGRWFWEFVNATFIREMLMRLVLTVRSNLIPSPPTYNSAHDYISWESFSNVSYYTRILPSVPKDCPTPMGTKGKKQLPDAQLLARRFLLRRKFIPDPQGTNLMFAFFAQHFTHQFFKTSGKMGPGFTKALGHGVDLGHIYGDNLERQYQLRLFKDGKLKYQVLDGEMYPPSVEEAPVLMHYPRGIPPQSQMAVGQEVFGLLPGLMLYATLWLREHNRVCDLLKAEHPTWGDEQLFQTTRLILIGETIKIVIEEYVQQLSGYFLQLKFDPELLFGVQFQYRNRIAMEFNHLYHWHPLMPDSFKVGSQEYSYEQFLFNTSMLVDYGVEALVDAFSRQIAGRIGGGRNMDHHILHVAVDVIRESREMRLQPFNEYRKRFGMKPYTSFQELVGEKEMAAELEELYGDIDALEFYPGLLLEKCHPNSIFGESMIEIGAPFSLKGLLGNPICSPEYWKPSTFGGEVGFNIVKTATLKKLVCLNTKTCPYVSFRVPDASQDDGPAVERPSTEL
Test [4] has as its target T2, Alpha-1A adrenergic receptor (Homo sapiens, UniProt P35348).
T2 sequence (P35348 whole entry): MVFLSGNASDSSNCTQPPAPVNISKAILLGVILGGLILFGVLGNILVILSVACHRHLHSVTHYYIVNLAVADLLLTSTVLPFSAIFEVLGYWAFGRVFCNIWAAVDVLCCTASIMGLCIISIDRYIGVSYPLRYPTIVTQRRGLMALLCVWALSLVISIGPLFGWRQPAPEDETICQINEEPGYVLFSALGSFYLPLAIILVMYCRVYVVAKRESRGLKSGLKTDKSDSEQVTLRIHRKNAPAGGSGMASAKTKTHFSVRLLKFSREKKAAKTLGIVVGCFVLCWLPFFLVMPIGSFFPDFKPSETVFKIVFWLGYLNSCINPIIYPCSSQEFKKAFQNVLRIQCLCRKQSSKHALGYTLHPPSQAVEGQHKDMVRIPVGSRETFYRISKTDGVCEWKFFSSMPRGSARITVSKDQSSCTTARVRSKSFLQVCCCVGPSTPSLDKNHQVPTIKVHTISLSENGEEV
The class given is functional, cell-based.

In test [5] the target is Cannabinoid receptor 1 (Homo sapiens, UniProt P21554). The class given is functional, cell-based.
Cannabinoid receptor 1, sequence (P21554 whole entry): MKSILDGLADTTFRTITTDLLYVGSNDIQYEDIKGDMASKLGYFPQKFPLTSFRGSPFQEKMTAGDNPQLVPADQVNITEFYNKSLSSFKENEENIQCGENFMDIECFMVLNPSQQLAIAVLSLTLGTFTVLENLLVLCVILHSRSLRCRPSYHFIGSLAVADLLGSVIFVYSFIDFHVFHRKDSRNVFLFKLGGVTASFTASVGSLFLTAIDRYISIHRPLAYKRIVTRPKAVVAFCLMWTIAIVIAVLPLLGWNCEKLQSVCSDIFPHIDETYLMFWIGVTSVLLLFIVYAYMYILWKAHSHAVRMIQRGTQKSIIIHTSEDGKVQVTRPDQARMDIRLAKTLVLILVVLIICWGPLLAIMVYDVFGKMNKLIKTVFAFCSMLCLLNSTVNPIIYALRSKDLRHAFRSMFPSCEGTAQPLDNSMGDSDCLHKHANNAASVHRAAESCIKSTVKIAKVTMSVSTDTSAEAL
Test [6] deals with Vasopressin V1a receptor (Homo sapiens, UniProt P37288).
Vasopressin V1a receptor, sequence (P37288 whole entry): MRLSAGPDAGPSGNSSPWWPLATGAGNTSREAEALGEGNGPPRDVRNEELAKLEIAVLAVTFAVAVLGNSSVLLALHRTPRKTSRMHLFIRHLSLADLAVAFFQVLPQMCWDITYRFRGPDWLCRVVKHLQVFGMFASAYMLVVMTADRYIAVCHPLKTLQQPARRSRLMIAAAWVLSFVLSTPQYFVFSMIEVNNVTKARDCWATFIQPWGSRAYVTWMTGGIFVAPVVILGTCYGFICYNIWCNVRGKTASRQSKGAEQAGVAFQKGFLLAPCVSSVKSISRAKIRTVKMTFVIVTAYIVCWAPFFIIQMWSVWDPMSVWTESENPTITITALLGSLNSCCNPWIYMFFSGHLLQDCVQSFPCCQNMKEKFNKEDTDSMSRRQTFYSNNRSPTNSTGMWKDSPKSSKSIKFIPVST
Test [7] concerns the target T3, Progesterone receptor (Homo sapiens, UniProt P06401).
T3 sequence (P06401 whole entry): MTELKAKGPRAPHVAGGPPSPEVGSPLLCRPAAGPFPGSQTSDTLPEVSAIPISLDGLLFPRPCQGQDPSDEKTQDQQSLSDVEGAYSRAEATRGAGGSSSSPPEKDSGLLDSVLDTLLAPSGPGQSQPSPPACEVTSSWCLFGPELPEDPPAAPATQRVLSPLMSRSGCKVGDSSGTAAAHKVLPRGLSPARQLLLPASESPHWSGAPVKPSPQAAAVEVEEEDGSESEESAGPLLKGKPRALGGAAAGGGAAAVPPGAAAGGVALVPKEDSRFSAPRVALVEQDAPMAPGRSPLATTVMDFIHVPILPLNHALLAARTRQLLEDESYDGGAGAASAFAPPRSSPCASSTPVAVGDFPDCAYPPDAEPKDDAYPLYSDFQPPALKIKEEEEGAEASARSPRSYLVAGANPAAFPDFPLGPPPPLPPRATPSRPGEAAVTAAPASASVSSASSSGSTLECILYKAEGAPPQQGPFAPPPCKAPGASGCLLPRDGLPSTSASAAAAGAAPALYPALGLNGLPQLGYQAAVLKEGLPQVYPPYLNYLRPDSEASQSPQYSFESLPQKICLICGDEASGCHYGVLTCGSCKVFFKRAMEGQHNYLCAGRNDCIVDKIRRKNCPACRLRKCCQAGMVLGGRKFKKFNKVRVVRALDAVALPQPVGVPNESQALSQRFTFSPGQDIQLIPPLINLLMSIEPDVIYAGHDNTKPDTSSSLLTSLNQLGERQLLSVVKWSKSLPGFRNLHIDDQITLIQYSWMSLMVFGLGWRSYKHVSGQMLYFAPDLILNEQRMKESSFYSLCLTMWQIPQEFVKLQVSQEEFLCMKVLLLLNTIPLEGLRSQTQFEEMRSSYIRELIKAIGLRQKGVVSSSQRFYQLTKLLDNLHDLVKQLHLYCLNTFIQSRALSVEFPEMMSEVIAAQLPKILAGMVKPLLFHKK
The test is classed as functional.

Test [8] deals with Vascular endothelial growth factor receptor 2 (Homo sapiens, UniProt P35968). The test is classed as functional.
Vascular endothelial growth factor receptor 2, sequence (P35968 whole entry): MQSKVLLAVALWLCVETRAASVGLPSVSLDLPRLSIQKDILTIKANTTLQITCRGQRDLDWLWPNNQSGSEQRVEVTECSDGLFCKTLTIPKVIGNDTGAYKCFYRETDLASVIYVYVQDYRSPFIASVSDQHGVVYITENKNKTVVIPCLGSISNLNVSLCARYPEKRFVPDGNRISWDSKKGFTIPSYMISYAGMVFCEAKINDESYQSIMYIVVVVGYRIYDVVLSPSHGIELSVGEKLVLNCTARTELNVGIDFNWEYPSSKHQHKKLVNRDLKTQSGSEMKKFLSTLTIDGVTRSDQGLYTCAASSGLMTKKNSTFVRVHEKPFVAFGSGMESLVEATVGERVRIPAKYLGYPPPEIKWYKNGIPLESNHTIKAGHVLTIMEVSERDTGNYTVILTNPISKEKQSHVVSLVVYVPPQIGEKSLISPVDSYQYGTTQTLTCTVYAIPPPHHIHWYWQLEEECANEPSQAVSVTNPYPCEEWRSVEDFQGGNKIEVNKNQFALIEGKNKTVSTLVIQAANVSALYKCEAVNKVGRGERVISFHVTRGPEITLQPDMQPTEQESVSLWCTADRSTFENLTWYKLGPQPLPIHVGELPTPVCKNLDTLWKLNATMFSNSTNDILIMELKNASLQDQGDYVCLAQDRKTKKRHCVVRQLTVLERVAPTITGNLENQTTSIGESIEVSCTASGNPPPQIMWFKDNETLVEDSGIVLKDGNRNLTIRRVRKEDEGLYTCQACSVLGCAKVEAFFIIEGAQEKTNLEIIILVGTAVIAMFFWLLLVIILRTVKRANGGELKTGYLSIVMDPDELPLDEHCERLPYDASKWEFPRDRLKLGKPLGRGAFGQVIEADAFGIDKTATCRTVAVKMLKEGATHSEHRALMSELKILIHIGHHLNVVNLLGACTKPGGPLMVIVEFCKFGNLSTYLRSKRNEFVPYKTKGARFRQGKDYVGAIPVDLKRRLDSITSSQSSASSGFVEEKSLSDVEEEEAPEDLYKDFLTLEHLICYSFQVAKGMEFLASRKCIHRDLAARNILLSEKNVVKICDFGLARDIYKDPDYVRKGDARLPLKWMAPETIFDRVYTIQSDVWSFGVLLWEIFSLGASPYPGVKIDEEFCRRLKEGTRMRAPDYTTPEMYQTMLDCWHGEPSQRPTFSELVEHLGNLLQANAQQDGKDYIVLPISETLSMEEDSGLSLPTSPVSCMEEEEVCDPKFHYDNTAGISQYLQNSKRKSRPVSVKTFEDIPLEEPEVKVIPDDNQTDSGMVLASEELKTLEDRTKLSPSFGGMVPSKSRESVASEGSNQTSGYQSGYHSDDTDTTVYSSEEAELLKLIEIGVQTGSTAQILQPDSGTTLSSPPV
Test [9] deals with Histamine H2 receptor (Homo sapiens, UniProt P25021). The test is classed as functional, cell-based.
Histamine H2 receptor, sequence (P25021 whole entry): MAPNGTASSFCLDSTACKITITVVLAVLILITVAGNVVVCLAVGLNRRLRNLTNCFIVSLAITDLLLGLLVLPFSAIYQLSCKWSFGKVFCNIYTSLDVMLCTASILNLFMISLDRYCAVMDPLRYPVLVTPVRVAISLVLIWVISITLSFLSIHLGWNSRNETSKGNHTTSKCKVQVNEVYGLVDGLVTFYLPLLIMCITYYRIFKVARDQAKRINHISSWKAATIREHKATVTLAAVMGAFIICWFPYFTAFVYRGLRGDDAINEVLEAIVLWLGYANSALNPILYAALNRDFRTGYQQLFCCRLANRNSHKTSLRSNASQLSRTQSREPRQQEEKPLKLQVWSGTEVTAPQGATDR
The target in test [10] is T4, Alpha-2B adrenergic receptor (Homo sapiens, UniProt P18089).
T4 sequence (P18089 whole entry): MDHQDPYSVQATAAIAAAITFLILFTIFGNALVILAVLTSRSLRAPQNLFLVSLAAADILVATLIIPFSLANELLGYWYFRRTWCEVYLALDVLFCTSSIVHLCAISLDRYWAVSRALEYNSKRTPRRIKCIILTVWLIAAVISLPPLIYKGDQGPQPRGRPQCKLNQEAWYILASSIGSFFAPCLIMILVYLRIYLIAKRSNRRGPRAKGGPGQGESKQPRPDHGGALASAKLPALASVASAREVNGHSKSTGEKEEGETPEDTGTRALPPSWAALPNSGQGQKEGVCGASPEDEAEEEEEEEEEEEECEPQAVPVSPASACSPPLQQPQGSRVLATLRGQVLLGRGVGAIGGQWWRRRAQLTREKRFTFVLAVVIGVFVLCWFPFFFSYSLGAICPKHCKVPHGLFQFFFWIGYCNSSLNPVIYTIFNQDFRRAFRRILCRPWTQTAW

One may read the AC50 as the concentration at which the activity in the assay is half-maximal.
Also: assay procedure not described here.

Histamine H3 receptor, sequence (Q9Y5N1 whole entry): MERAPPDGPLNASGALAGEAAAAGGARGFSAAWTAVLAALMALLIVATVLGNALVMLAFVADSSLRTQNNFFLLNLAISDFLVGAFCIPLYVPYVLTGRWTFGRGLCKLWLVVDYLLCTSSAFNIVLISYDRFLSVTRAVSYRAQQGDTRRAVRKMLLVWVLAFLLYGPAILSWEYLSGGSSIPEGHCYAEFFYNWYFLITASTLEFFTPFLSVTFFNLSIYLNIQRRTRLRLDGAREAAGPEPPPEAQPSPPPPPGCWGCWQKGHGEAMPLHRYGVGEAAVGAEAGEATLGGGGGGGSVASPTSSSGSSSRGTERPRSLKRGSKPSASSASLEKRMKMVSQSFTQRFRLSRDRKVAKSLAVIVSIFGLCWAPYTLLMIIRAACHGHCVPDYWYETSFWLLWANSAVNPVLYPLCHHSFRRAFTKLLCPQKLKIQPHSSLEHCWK

Take `CN(C)CCC=C1c2ccccc2CCc2ccccc21` [AMITRIPTYLINE]: the half-maximal activity concentration (AC50) is greater than 30 µM in [1]; greater than 30 µM in [2]; greater than 30 µM in [3]; 0.12 µM in test [4]; greater than 30 µM in test [5]; greater than 30 µM in [6]. The concentration at half-maximal activity (AC50) in test [7] and in test [8] was greater than 30 µM each time.

In the case of `NCC1(CC(=O)O)CCCCC1` [GABAPENTIN], the half-maximal activity concentration (AC50) in test [1] was greater than 30 µM; in test [2], greater than 30 µM; in test [3] it was greater than 30 µM; in test [4] it was greater than 30 µM; in test [9], greater than 10 µM; in [5] it was greater than 30 µM. Also, the concentration at half-maximal activity (AC50) in test [6], in test [7] and in test [8] was greater than 30 µM throughout.

As for `CS(=O)(=O)Nc1ccc([N+](=O)[O-])cc1Oc1ccccc1` [NIMESULIDE], the AC50 was greater than 30 µM in test [1]; 27 µM in test [2]; greater than 30 µM in test [4]; greater than 30 µM in [9]; greater than 30 µM in [5]; greater than 30 µM in test [6]. Moreover, the AC50 in test [7] and in test [8] was greater than 30 µM throughout.

Take `CN(C)CCN(Cc1ccccc1)c1ccccn1` [TRIPELENNAMINE]: the AC50 is greater than 30 µM in [1]; greater than 10 µM in test [2]; greater than 30 µM in [3]; greater than 10 µM in test [9]; greater than 10 µM in [6]; 11 µM in [10]. Further, in test [8], the half-maximal activity concentration (AC50) was greater than 30 µM.

For the compound `Cc1c(C)c2c(c(C)c1O)CCC(C)(COc1ccc(CC3SC(=O)NC3=O)cc1)O2` (stereo unspecified) [TROGLITAZONE], the concentration at half-maximal activity (AC50) in [1], in test [2], in test [3], in test [4], in [9] and in test [5] was greater than 30 µM in each case. Moreover, the half-maximal activity concentration (AC50) in test [6], in [7] and in test [8] was greater than 30 µM in each case.
